These compounds were tested on Botrytis cinerea (assay: Fungicidal activity, fungicide growth rate method, BC). Conditions: Botrytis cinerea, 50 μg/mL; read-out: fungicidal activity (growth inhibition rate), BC.
Format: cell-based

| SMILES | inhibition at 50 µg/mL |
| --- | --- |
| C=CC[C@@H]1C[C@@]2(O)C[C@@H](CC=C)[C@H]3C[C@@H](O)CC[C@@]32O1 [Zyj07-68] | 36% |
| C=C(C)C1C[C@]2(O)C(C(=O)OCC)C(=O)O[C@@]23CC=CC[C@H]13 (stereo partly shown) [Zyj06-167] | 13% |
| CC(=O)O[C@@]12C[C@H]3CC=CC[C@@]1(O3)[C@@H]1CC=CC[C@@H]1C2 [Zyj07-41-2] | 34% |

What follows are compounds tested on Alternaria solani (assay: Fungicidal activity, fungicide growth rate method, AS). Conditions: Alternaria solani, 50 μg/mL; read-out: fungicidal activity (growth inhibition rate), AS.
Format: cell-based

| SMILES | inhibition at 50 µg/mL |
| --- | --- |
| C=CC[C@@H]1C[C@@]2(O)C[C@@H](CC=C)[C@H]3C[C@@H](O)CC[C@@]32O1 [Zyj07-68] | 3% |
| CC(=O)O[C@@]12C[C@H]3CC=CC[C@@]1(O3)[C@@H]1CC=CC[C@@H]1C2 [Zyj07-41-2] | 14% |

Each compound was assayed on Rhizoctonia cerealis (assay: Fungicidal activity, fungicide growth rate method, RC). Conditions: Ceratobasidium cereale, 50 μg/mL; read-out: fungicidal activity (growth inhibition rate), RC.
Format: cell-based

| SMILES | inhibition at 50 µg/mL |
| --- | --- |
| C=CC[C@@H]1C[C@@]2(O)C[C@@H](CC=C)[C@H]3C[C@@H](O)CC[C@@]32O1 [Zyj07-68] | 21% |
| C=C(C)C1C[C@]2(O)C(C(=O)OCC)C(=O)O[C@@]23CC=CC[C@H]13 (stereo partly shown) [Zyj06-167] | 59% |

The compounds below were run on Physalospora piricola (assay: Fungicidal activity, fungicide growth rate method, PP). Conditions: 50 μg/mL; read-out: fungicidal activity (growth inhibition rate), PP.
Format: cell-based

| SMILES | inhibition at 50 µg/mL |
| --- | --- |
| C=CC[C@@H]1C[C@@]2(O)C[C@@H](CC=C)[C@H]3C[C@@H](O)CC[C@@]32O1 [Zyj07-68] | 2% |
| C=C(C)C1C[C@]2(O)C(C(=O)OCC)C(=O)O[C@@]23CC=CC[C@H]13 (stereo partly shown) [Zyj06-167] | 0% |
| CC(=O)O[C@@]12C[C@H]3CC=CC[C@@]1(O3)[C@@H]1CC=CC[C@@H]1C2 [Zyj07-41-2] | > 50% |

These compounds were tested on Ostrinia furnacalis (assay: Insecticidal activity against Ostrinia furnacalis). Conditions: Ostrinia furnacalis; 100 μg/mL; read-out: insecticidal activity, Ostrinia furnacalis.
Format: in vivo

| SMILES | pest or weed control at 100 µg/mL |
| --- | --- |
| C=CC[C@@H]1C[C@@]2(O)C[C@@H](CC=C)[C@H]3C[C@@H](O)CC[C@@]32O1 [Zyj07-68] | 0% |
| CC(=O)O[C@@]12C[C@H]3CC=CC[C@@]1(O3)[C@@H]1CC=CC[C@@H]1C2 [Zyj07-41-2] | 0% |

The compounds below were run on Apis mellifera ligustica Spin (assay: not given). Conditions: dosage 8.70 μg a.i./bee.

| SMILES | Death rate after 48 h (%) |
| --- | --- |
| CC(=O)O[C@@]12C[C@H]3CC=CC[C@@]1(O3)[C@@H]1CC=CC[C@@H]1C2 [Zyj07-41-2] | 0% |

Same assay, conditions: dosage 8.70 μg a.i./bee; per replicate of 10 bees

| SMILES | Death number after 24 h | Death number after 48 h |
| --- | --- | --- |
| CC(=O)O[C@@]12C[C@H]3CC=CC[C@@]1(O3)[C@@H]1CC=CC[C@@H]1C2 [Zyj07-41-2] | 0 | 0 |

Same assay, conditions: dosage 9.97 μg a.i./bee

| SMILES | Death rate after 48 h (%) |
| --- | --- |
| C=CC[C@@H]1C[C@@]2(O)C[C@@H](CC=C)[C@H]3C[C@@H](O)CC[C@@]32O1 [Zyj07-68] | 10.0% |

Same assay, conditions: dosage 9.97 μg a.i./bee; per replicate of 10 bees

| SMILES | Death number after 24 h | Death number after 48 h |
| --- | --- | --- |
| C=CC[C@@H]1C[C@@]2(O)C[C@@H](CC=C)[C@H]3C[C@@H](O)CC[C@@]32O1 [Zyj07-68] | 0 | 1 |

Same assay, conditions: dosage 13.5 μg a.i./bee

| SMILES | Death rate after 48 h (%) |
| --- | --- |
| CC(=O)O[C@@]12C[C@H]3CC=CC[C@@]1(O3)[C@@H]1CC=CC[C@@H]1C2 [Zyj07-41-2] | 0% |

Same assay, conditions: dosage 13.5 μg a.i./bee; per replicate of 10 bees

| SMILES | Death number after 24 h | Death number after 48 h |
| --- | --- | --- |
| CC(=O)O[C@@]12C[C@H]3CC=CC[C@@]1(O3)[C@@H]1CC=CC[C@@H]1C2 [Zyj07-41-2] | 0 | 0 |

Same assay, conditions: dosage 16.1 μg a.i./bee

| SMILES | Death rate after 48 h (%) |
| --- | --- |
| C=CC[C@@H]1C[C@@]2(O)C[C@@H](CC=C)[C@H]3C[C@@H](O)CC[C@@]32O1 [Zyj07-68] | 0% |

Same assay, conditions: dosage 16.1 μg a.i./bee; per replicate of 10 bees

| SMILES | Death number after 24 h | Death number after 48 h |
| --- | --- | --- |
| C=CC[C@@H]1C[C@@]2(O)C[C@@H](CC=C)[C@H]3C[C@@H](O)CC[C@@]32O1 [Zyj07-68] | 0 | 0 |

The compounds below were run on Sclerotinia sclerotiorum (assay: Fungicidal activity, fungicide growth rate method, SS). Conditions: Sclerotinia sclerotiorum, 50 μg/mL.
Format: cell-based

| SMILES | inhibition at 50 µg/mL |
| --- | --- |
| C=CC[C@@H]1C[C@@]2(O)C[C@@H](CC=C)[C@H]3C[C@@H](O)CC[C@@]32O1 [Zyj07-68] | > 50% |
| C=C(C)C1C[C@]2(O)C(C(=O)OCC)C(=O)O[C@@]23CC=CC[C@H]13 (stereo partly shown) [Zyj06-167] | 9% |

These compounds were tested on Phytophthora infestans (Mont.) de Bary (assay: microbe, parasite or virus in culture). Conditions: Phytophthora infestans, read-out: fungicidal activity (growth inhibition rate), PI, 50 μg/mL.
Format: cell-based

| SMILES | inhibition at 50 µg/mL |
| --- | --- |
| C=CC[C@@H]1C[C@@]2(O)C[C@@H](CC=C)[C@H]3C[C@@H](O)CC[C@@]32O1 [Zyj07-68] | 13% |
| C=C(C)C1C[C@]2(O)C(C(=O)OCC)C(=O)O[C@@]23CC=CC[C@H]13 (stereo partly shown) [Zyj06-167] | 0% |
| CC(=O)O[C@@]12C[C@H]3CC=CC[C@@]1(O3)[C@@H]1CC=CC[C@@H]1C2 [Zyj07-41-2] | 25% |

The compounds below were run on Helicoverpa armigera (Hübner) (assay: Insecticidal activity against Helicoverpa armigera (Hübner)). Conditions: Helicoverpa armigera; 100 μg/mL; read-out: insecticidal activity, Helicoverpa armigera (Hübner).
Format: in vivo

| SMILES | pest or weed control at 100 µg/mL |
| --- | --- |
| C=CC[C@@H]1C[C@@]2(O)C[C@@H](CC=C)[C@H]3C[C@@H](O)CC[C@@]32O1 [Zyj07-68] | 0% |
| CC(=O)O[C@@]12C[C@H]3CC=CC[C@@]1(O3)[C@@H]1CC=CC[C@@H]1C2 [Zyj07-41-2] | 15% |

These compounds were tested on Tobacco Mosaic Virus (assay: Anti-TMV inactivation activity on tobacco plants). Conditions: compound mixed with TMV solution 30 minutes, lesions checked three days later.
Format: in vivo
Design: concentration or dose not given beside the values

| SMILES | TMV inactivation (anti-TMV activity) |
| --- | --- |
| CC(=O)O[C@@]12C[C@H]3CC=CC[C@@]1(O3)[C@@H]1CC=CC[C@@H]1C2 [Zyj07-41-2] | 18% |

What follows are compounds tested on Pellicularia sasakii (assay: Fungicidal activity, fungicide growth rate method, PS). Conditions: 50 μg/mL; read-out: fungicidal activity (growth inhibition rate), PS.
Format: cell-based

| SMILES | inhibition at 50 µg/mL |
| --- | --- |
| C=CC[C@@H]1C[C@@]2(O)C[C@@H](CC=C)[C@H]3C[C@@H](O)CC[C@@]32O1 [Zyj07-68] | 9% |
| C=C(C)C1C[C@]2(O)C(C(=O)OCC)C(=O)O[C@@]23CC=CC[C@H]13 (stereo partly shown) [Zyj06-167] | 24% |
| CC(=O)O[C@@]12C[C@H]3CC=CC[C@@]1(O3)[C@@H]1CC=CC[C@@H]1C2 [Zyj07-41-2] | 41% |

Each compound was assayed on Caenorhabditis elegans (assay: Insecticidal activity against Caenorhabditis elegans). Conditions: Caenorhabditis elegans, 100 μg/mL; read-out: insecticidal activity, Caenorhabditis elegans.
Format: in vivo

| SMILES | pest or weed control at 100 µg/mL |
| --- | --- |
| C=CC[C@@H]1C[C@@]2(O)C[C@@H](CC=C)[C@H]3C[C@@H](O)CC[C@@]32O1 [Zyj07-68] | 13% |
| C=C(C)C1C[C@]2(O)C(C(=O)OCC)C(=O)O[C@@]23CC=CC[C@H]13 (stereo partly shown) [Zyj06-167] | 25% |
| CC(=O)O[C@@]12C[C@H]3CC=CC[C@@]1(O3)[C@@H]1CC=CC[C@@H]1C2 [Zyj07-41-2] | 12% |

Each compound was assayed on Cercospora arachidicola (assay: Fungicidal activity, fungicide growth rate method, CA). Conditions: Mycosphaerella arachidis, 50 μg/mL; read-out: fungicidal activity (growth inhibition rate), CA.
Format: cell-based

| SMILES | inhibition at 50 µg/mL |
| --- | --- |
| C=CC[C@@H]1C[C@@]2(O)C[C@@H](CC=C)[C@H]3C[C@@H](O)CC[C@@]32O1 [Zyj07-68] | 19% |
| C=C(C)C1C[C@]2(O)C(C(=O)OCC)C(=O)O[C@@]23CC=CC[C@H]13 (stereo partly shown) [Zyj06-167] | 26% |
| CC(=O)O[C@@]12C[C@H]3CC=CC[C@@]1(O3)[C@@H]1CC=CC[C@@H]1C2 [Zyj07-41-2] | > 50% |

These compounds were tested on Mythimna separate (Walker) (assay: Insecticidal activity against Mythimna separate (Walker)). Conditions: Mythimna, 100 μg/mL; read-out: insecticidal activity, Mythimna separate (Walker).
Format: in vivo

| SMILES | pest or weed control at 100 µg/mL |
| --- | --- |
| C=CC[C@@H]1C[C@@]2(O)C[C@@H](CC=C)[C@H]3C[C@@H](O)CC[C@@]32O1 [Zyj07-68] | 0% |
| CC(=O)O[C@@]12C[C@H]3CC=CC[C@@]1(O3)[C@@H]1CC=CC[C@@H]1C2 [Zyj07-41-2] | 10% |

Each compound was assayed on wheat Gibberella zeae (assay: microbe, parasite or virus in culture). Conditions: Fusarium graminearum, read-out: fungicidal activity (growth inhibition rate), GZ, 50 μg/mL.
Format: cell-based

| SMILES | inhibition at 50 µg/mL |
| --- | --- |
| C=CC[C@@H]1C[C@@]2(O)C[C@@H](CC=C)[C@H]3C[C@@H](O)CC[C@@]32O1 [Zyj07-68] | 0% |
| C=C(C)C1C[C@]2(O)C(C(=O)OCC)C(=O)O[C@@]23CC=CC[C@H]13 (stereo partly shown) [Zyj06-167] | 46% |
| CC(=O)O[C@@]12C[C@H]3CC=CC[C@@]1(O3)[C@@H]1CC=CC[C@@H]1C2 [Zyj07-41-2] | 20% |
